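All cell lines were grown in 96-well plates and treated with compound for 48 hours. GI50 is the concentration that inhibits growth by half.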 Calls of active or inactive are those of the source. No stated cut-off is given here; in the data, active = GI50 up to about 1.1 µM and inactive = higher.
Legend:
Experiment in all cases: growth of human tumour cells (NCI), 48 h
DLD-1 = tested on: DLD-1
LXFL 529 = tested on: LXFL 529
RXF 631 = tested on: RXF 631
DMS-114 = tested on: DMS-114
XF498 = tested on: XF498
HOP-18 = tested on: HOP-18
KM-20L2 = tested on: KM-20L2
DMS-273 = tested on: DMS-273

Measured: GI50

CC12CC3CC(C1)CC(N=[N+]=[N-])(C3)C2
inactive: DLD-1 > 100 µM | LXFL 529 > 100 µM | RXF 631 > 100 µM | DMS-114 > 100 µM | XF498 > 100 µM | HOP-18 > 100 µM | KM-20L2 > 100 µM | DMS-273 > 100 µM

N#CC1C(=O)C(=O)N(c2ccccc2)C1=O (configuration not stated)
inactive: LXFL 529 > 100 µM | RXF 631 > 100 µM | DMS-114 > 100 µM | XF498 > 100 µM | HOP-18 > 100 µM | KM-20L2 > 100 µM | DMS-273 > 100 µM

OCCN1CCN(CCO)Cc2ccccc2OCCOc2ccccc2C1
inactive: DLD-1 > 100 µM | LXFL 529 64.4 µM | RXF 631 > 100 µM | DMS-114 > 100 µM | KM-20L2 > 100 µM | DMS-273 > 100 µM

COc1ccc(N(CC(=O)O)S(=O)(=O)c2ccccc2)cc1
inactive: DLD-1 > 100 µM | LXFL 529 > 100 µM | RXF 631 > 100 µM | XF498 > 100 µM | HOP-18 > 100 µM | KM-20L2 > 100 µM | DMS-273 > 100 µM

C=CC1(C)CCC2=C(CCC3C(C)(C(=O)OC)CCCC23C)C1=O (configuration not stated)
inactive: DLD-1 18.5 µM | LXFL 529 18.5 µM | RXF 631 16.2 µM | DMS-114 15.3 µM | KM-20L2 21.3 µM

COC(=O)c1sc(=O)n(-c2ccccc2)c1SCc1ccccc1
inactive: DLD-1 > 100 µM | LXFL 529 > 100 µM | RXF 631 > 100 µM | XF498 > 100 µM | HOP-18 > 100 µM | KM-20L2 > 100 µM | DMS-273 > 100 µM

CCOC(=O)C1S/C(=N\c2ccc(Cl)cc2Cl)N=C1C (configuration not stated)
inactive: DLD-1 73.6 µM | LXFL 529 75.2 µM | DMS-114 33.1 µM | XF498 39.5 µM | HOP-18 > 100 µM | KM-20L2 > 100 µM | DMS-273 61.1 µM

From ChEMBL document CHEMBL1201862, “PubChem BioAssay data set” (2004)
